Values quoted from earlier work as cited in patent publication US20240216329A1, “PUTRESCINE TOPICAL FORMULATIONS” (VIVIER CANADA INC., priority 2017, published 2024).

Columns and labels:
[1] = test system: epidermis of eroded skin
[2] = test system: scar fibroblasts; conditions: human harvested scars
[3] = test system: collagen cross-linking (fibroblast tissue transglutaminase); conditions: in vitro and in vivo

NCCCCN [putrescine, 1,4-diaminobutane]
barrier function of the epidermis ([1]; eroded skin, topical): increasing its barrier function
thickness of the stratum lucidum / inner strata of epidermis ([1]; stratum lucidum in animals, inner strata of human epidermis): increasing
apoptosis of scar fibroblasts [2]: increase in apoptosis of scar fibroblasts
collagen cross-linking [3]: reduce collagen cross-linking
